Laboratory results taken from PubChem BioAssay AID1963841 (Molecular Pharmacology Branch, DTP, NCI, 2024).
pIC50: −log10 of the molar value.

Test system: 439559-082-T-J2-PDC spheroid viability
Assay: Anticancer human tumor 439559-082-T-J2-PDC patient-derived colon adenocarcinoma cell line growth inhibition [POLQ]
Details: spheroids with HUVEC and MSC; for pIC50: curve of first compound; for viability, T/C: stronger effect = lower value
Outline: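 Three-cell-type spheroids modelling solid tumor plus stroma served as the readout system; POL inhibitors were tested individually and in combination, concentration ranges set by clinical Cmax where known.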

[1] = second compound 0.0316 µM, first compound 0.0316 µM
[2] = second compound 0.0316 µM, first compound 0.1 µM
[3] = second compound 0.0316 µM, first compound 0.316 µM
[4] = second compound 0.0316 µM, first compound 1 µM
[5] = second compound 0.0316 µM, first compound 3.16 µM
[6] = second compound 0.0316 µM, first compound 10 µM
[7] = second compound 0.1 µM, first compound 0.0316 µM
[8] = second compound 0.1 µM, first compound 0.1 µM
[9] = second compound 0.1 µM, first compound 0.316 µM
[10] = second compound 0.1 µM, first compound 1 µM
[11] = second compound 0.1 µM, first compound 3.16 µM
[12] = second compound 0.1 µM, first compound 10 µM
[13] = second compound 0.316 µM, first compound 0.0316 µM
[14] = second compound 0.316 µM, first compound 0.1 µM
[15] = second compound 0.316 µM, first compound 0.316 µM
[16] = second compound 0.316 µM, first compound 1 µM
[17] = second compound 0.316 µM, first compound 3.16 µM
[18] = second compound 0.316 µM, first compound 10 µM
[19] = second compound 1 µM, first compound 0.0316 µM
[20] = second compound 1 µM, first compound 0.1 µM
[21] = second compound 1 µM, first compound 0.316 µM
[22] = second compound 1 µM, first compound 1 µM
[23] = second compound 1 µM, first compound 3.16 µM
[24] = second compound 1 µM, first compound 10 µM
[25] = second compound 3.16 µM, first compound 0.0316 µM
[26] = second compound 3.16 µM, first compound 0.1 µM
[27] = second compound 3.16 µM, first compound 0.316 µM
[28] = second compound 3.16 µM, first compound 1 µM
[29] = second compound 3.16 µM, first compound 3.16 µM
[30] = second compound 3.16 µM, first compound 10 µM
[31] = second compound 10 µM, first compound 0.0316 µM
[32] = second compound 10 µM, first compound 0.1 µM
[33] = second compound 10 µM, first compound 0.316 µM
[34] = second compound 10 µM, first compound 1 µM
[35] = second compound 10 µM, first compound 3.16 µM
[36] = second compound 10 µM, first compound 10 µM
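Note: spheroids exposed to compounds for seven days before readout.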
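Throughout, for viability, T/C: 100% = DMSO vehicle control viability.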

SMILES: CCc1cc2c(N3CCc4c(cc(Cn5ccnc5)cc4-c4cn(C)nc4C(F)(F)F)C3=O)ccnc2c(OC)n1 + Nc1ccc(C#CCN(C(=O)Cc2ncc(C(F)(F)F)cc2C(F)(F)F)c2ccc(F)cc2)nn1
- pIC50 (second compound 0.0316 µM): < 5.00
- pIC50 (second compound 0.1 µM): < 5.00
- pIC50 (second compound 0.316 µM): < 5.00
- pIC50 (second compound 1 µM): < 5.00
- pIC50 (second compound 3.16 µM): < 5.00
- pIC50 (second compound 10 µM): < 5.00
- viability, T/C [1]: 98%
- viability, T/C [2]: 94.8%
- viability, T/C [3]: 93.3%
- viability, T/C [4]: 89.9%
- viability, T/C [5]: 83%
- viability, T/C [6]: 84%
- viability, T/C [7]: 90.6%
- viability, T/C [8]: 101%
- viability, T/C [9]: 86%
- viability, T/C [10]: 86.2%
- viability, T/C [11]: 96.5%
- viability, T/C [12]: 95.6%
- viability, T/C [13]: 102%
- viability, T/C [14]: 105%
- viability, T/C [15]: 86.5%
- viability, T/C [16]: 97.2%
- viability, T/C [17]: 93.7%
- viability, T/C [18]: 86.9%
- viability, T/C [19]: 88.7%
- viability, T/C [20]: 95.8%
- viability, T/C [21]: 86.5%
- viability, T/C [22]: 88.5%
- viability, T/C [23]: 95.1%
- viability, T/C [24]: 80.5%
- viability, T/C [25]: 104%
- viability, T/C [26]: 102%
- viability, T/C [27]: 95%
- viability, T/C [28]: 82.7%
- viability, T/C [29]: 88.8%
- viability, T/C [30]: 78.7%
- viability, T/C [31]: 98.9%
- viability, T/C [32]: 91.8%
- viability, T/C [33]: 92.2%
- viability, T/C [34]: 93.9%
- viability, T/C [35]: 91.7%
- viability, T/C [36]: 84.7%

SMILES: CNCc1ccc(-c2[nH]c3cc(F)cc4c3c2CCNC4=O)cc1 + Nc1ccc(C#CCN(C(=O)Cc2ncc(C(F)(F)F)cc2C(F)(F)F)c2ccc(F)cc2)nn1
- pIC50 (second compound 0.0316 µM): < 5.00
- pIC50 (second compound 0.1 µM): < 5.00
- pIC50 (second compound 0.316 µM): < 5.00
- pIC50 (second compound 1 µM): < 5.00
- pIC50 (second compound 3.16 µM): < 5.00
- pIC50 (second compound 10 µM): < 5.00
- viability, T/C [1]: 91.6%
- viability, T/C [2]: 106%
- viability, T/C [3]: 102%
- viability, T/C [4]: 87.2%
- viability, T/C [5]: 116%
- viability, T/C [6]: 97.7%
- viability, T/C [7]: 100%
- viability, T/C [8]: 95.3%
- viability, T/C [9]: 97.5%
- viability, T/C [10]: 101%
- viability, T/C [11]: 102%
- viability, T/C [12]: 110%
- viability, T/C [13]: 109%
- viability, T/C [14]: 108%
- viability, T/C [15]: 87.4%
- viability, T/C [16]: 96.4%
- viability, T/C [17]: 105%
- viability, T/C [18]: 101%
- viability, T/C [19]: 101%
- viability, T/C [20]: 97.4%
- viability, T/C [21]: 105%
- viability, T/C [22]: 90.5%
- viability, T/C [23]: 107%
- viability, T/C [24]: 122%
- viability, T/C [25]: 100%
- viability, T/C [26]: 112%
- viability, T/C [27]: 111%
- viability, T/C [28]: 97.4%
- viability, T/C [29]: 110%
- viability, T/C [30]: 98.2%
- viability, T/C [31]: 94.8%
- viability, T/C [32]: 104%
- viability, T/C [33]: 110%
- viability, T/C [34]: 102%
- viability, T/C [35]: 104%
- viability, T/C [36]: 105%
